Assay [1] has as its target T1, Alpha-galactosidase C (Aspergillus niger) (UniProt Q9UUZ4).
T1 sequence (whole entry): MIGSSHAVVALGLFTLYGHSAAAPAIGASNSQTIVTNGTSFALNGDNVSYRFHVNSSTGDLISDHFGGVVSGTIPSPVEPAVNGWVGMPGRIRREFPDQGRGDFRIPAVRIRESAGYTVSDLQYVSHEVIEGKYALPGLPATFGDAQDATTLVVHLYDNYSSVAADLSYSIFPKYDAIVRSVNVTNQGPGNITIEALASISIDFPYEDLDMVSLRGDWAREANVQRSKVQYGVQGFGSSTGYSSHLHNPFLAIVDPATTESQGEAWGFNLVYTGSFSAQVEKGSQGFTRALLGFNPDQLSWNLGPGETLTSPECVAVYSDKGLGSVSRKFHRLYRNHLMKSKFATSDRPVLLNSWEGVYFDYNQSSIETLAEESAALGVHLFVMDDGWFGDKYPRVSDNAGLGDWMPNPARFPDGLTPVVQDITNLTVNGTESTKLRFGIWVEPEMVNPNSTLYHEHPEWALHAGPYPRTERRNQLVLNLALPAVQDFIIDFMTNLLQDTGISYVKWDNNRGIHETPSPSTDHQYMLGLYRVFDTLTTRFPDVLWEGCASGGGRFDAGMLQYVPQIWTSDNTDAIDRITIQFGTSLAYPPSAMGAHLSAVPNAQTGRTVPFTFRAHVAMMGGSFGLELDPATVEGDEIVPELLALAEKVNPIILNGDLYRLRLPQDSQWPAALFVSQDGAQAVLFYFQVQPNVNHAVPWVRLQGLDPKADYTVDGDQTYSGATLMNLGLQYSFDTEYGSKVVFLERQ
Nature of the assay: Percent inhibition of alpha-galactosidase of Aspergillus niger at 1000 uM.

The target in assay [2] is T2, Beta-galactosidase (Rattus norvegicus) (UniProt D3ZUM4).
T2 sequence (whole entry): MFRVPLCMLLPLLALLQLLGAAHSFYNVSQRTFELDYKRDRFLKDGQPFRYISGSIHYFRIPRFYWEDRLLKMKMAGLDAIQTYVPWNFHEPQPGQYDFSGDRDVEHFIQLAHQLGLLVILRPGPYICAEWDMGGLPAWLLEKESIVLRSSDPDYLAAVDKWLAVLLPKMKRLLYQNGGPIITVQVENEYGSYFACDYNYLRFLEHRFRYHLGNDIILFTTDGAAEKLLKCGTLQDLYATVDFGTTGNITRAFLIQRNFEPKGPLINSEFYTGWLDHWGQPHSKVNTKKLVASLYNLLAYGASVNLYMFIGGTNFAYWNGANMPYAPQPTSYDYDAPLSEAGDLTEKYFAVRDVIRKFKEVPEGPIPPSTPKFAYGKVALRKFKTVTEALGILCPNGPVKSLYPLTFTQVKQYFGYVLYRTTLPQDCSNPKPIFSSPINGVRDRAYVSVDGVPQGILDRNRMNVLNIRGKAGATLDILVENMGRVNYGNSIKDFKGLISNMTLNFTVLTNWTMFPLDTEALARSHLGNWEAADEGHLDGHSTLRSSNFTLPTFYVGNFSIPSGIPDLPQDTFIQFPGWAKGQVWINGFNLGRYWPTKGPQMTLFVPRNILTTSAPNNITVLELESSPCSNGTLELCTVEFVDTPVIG
Nature of the assay: Percent inhibition of beta-galactosidase of rat epididymis at 1000 uM.

The target in assay [3] is T3, Cytosolic beta-glucosidase (Homo sapiens, UniProt Q9H227).
T3 sequence (Q9H227 whole entry): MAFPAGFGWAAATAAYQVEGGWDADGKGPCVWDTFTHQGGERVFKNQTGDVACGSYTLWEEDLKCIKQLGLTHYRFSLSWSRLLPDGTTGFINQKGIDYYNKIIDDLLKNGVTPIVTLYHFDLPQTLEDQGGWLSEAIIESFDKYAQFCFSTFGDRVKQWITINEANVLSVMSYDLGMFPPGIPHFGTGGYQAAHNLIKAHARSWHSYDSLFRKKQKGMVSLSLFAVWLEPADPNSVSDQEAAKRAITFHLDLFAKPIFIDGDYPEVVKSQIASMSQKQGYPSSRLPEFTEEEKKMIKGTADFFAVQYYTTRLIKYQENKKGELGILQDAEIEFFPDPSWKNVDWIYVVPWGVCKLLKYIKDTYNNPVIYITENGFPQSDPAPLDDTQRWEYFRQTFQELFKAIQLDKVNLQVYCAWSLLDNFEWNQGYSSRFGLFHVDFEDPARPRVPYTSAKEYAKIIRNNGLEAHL
Nature of the assay: Inhibitory concentration against human beta-glucosidase.

Assay [4] has as its target T3, Cytosolic beta-glucosidase. Nature of the assay: Inhibitory concentration against beta-glucosidase.
The target in the next assay is T4, Alpha-galactosidase C (Aspergillus niger, UniProt Q9UUZ4).
T4 sequence (Q9UUZ4 whole entry): T1 sequence (whole entry)
Nature of the assay: Inhibitory concentration against alpha-galactosidase of Aspergillus niger.

The target of assay [5] is T2, Beta-galactosidase (Rattus norvegicus). Nature of the assay: Percent inhibition of beta galactosidase of rat epididymis at 1000 uM.
Assay [6] deals with Alpha-galactosidase (Coffea arabica) (UniProt Q5DUH8). The conditions noted are these: 1000 uM.
Sequence of Alpha-galactosidase (Coffea arabica) (Q5DUH8 as listed by the source): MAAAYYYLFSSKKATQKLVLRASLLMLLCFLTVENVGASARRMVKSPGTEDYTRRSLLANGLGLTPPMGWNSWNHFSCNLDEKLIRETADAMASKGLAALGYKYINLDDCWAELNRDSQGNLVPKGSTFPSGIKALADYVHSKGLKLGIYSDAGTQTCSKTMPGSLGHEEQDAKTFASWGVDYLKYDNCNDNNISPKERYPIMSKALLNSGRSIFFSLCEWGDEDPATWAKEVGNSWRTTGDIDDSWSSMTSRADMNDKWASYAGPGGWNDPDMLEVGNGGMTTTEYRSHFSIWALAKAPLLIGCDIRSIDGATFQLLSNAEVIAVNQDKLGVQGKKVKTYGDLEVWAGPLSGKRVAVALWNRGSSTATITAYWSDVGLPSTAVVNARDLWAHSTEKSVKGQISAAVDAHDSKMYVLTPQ
In assay [7] the target is T5, Tissue alpha-L-fucosidase (Bos taurus, UniProt Q2KIM0).
T5 sequence (Q2KIM0 whole entry): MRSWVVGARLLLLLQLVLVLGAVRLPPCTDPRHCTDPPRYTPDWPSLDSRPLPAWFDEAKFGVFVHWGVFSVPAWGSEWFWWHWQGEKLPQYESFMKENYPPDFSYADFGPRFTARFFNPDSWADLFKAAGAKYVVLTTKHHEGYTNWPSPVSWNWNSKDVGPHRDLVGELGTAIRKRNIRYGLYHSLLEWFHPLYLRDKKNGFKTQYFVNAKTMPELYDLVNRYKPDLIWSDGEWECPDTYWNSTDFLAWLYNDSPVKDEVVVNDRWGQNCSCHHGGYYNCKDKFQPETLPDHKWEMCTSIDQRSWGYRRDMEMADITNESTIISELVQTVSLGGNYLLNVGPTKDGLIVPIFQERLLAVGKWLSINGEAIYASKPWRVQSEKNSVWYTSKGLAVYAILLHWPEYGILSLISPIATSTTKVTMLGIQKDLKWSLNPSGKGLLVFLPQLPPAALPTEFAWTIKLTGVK
Nature of the assay: Ki value against bovine alpha-L-fucosidase.

In assay [8] the target is T5, Tissue alpha-L-fucosidase. Nature of the assay: Inhibitory concentration against alpha-L-fucosidase of bovine epididymis.
The target in assay [9] is T5, Tissue alpha-L-fucosidase. Nature of the assay: Inhibitory concentration against bovine alpha-L-fucosidase.

Some results are limits rather than exact numbers.

The inhibition is the percentage by which the read-out fell short of the control. Higher therefore signals a strong effect. `OC[C@@H]1NC[C@@H](O)[C@@H](O)[C@H]1O`: the inhibition in assay [1] and in [2] was less than 50% throughout.
The term IC50 denotes the concentration needed to halve the response being measured. Low readings indicate inhibition by little substance, high ones a need for much substance. Consider `OC[C@H]1NC[C@@H](O)[C@H](O)[C@H]1O`, for which the inhibition in assay [1] and in assay [2] was less than 50% in each case. Moreover, the results for the IC50 in assay [3] and in assay [4] were 66 µM and 60 µM, respectively.
`OC[C@H]1NC[C@H](O)[C@@H](O)[C@H]1O` displayed an IC50 against Alpha-galactosidase C of 1.8 µM.
For `OC[C@@H]1NC[C@@H](O)[C@H](O)[C@H]1O`, the inhibition in assay [1], in [5] and in assay [6] was less than 50% throughout. This compound gave an IC50 in assay [4] of 980 µM.
`OC[C@H]1NC[C@H](O)[C@H](O)[C@@H]1O`: the inhibition in assay [1] and in assay [2] was less than 50% each time.
In the case of `OC[C@@H]1NC[C@H](O)[C@@H](O)[C@@H]1O`, the inhibition in [1], in [2] and in assay [6] was less than 50% throughout.
Regarding `OC[C@H]1NC[C@H](O)[C@@H](O)[C@@H]1O` [DUVOGLUSTAT], the inhibition in [1] and in [5] was less than 50% throughout. Besides, the half-inhibitory concentration (IC50) stood at 240 µM in [3] and 80 µM in [4].
The term Ki denotes a dissociation constant, usually derived from enzyme kinetics or from competition with a known ligand. A lower Ki goes with higher affinity. For the compound `OC[C@H]1NC[C@@H](O)[C@@H](O)[C@@H]1O` [DEOXYMANNOJIRIMYCIN], the Ki in assay [7] was determined as 4.7 µM. Moreover, the inhibition in assay [1], in [2] and in [6] was less than 50% throughout. Also, in [8], the IC50 was 39 µM.
Take `OC[C@H]1NC[C@H](O)[C@H](O)[C@H]1O`: the inhibition in assay [1] and in [2] was less than 50% each time.
For the compound `OC[C@@H]1NC[C@@H](O)[C@@H](O)[C@@H]1O`, in [7], the Ki is 14 µM. In addition, the inhibition in assay [1], in assay [2] and in assay [6] was less than 50% in each case. Also, in assay [8], half-maximal inhibition (IC50) was put at 156 µM.
Turning to `OC[C@@H]1NC[C@@H](O)[C@H](O)[C@@H]1O`, the IC50 in assay [9] was 0.63 µM. For the same compound, the Ki in assay [7] is 0.08 µM. In addition, the inhibition in assay [1] was less than 50%.
On to `OC[C@@H]1NC[C@H](O)[C@H](O)[C@H]1O`, for which the inhibition in [1], in assay [2] and in assay [6] was less than 50% throughout.

These data come from ChEMBL document CHEMBL1142734, “Biological properties of D- and L-1-deoxyazasugars” (J Med Chem, 2005).
